Measurements reported in PubChem BioAssay AID1259408 (Genetic Toxicology Data Bank (GENE-TOX), 2018).
Activity calls are given as the source filed them. The rule behind the calls is not given here.

System: GENE-TOX genotoxicity assays, various organisms and cells
Experiment: GENE-TOX mutagenicity studies
Conditions: for call: Assay Type: In vivo carcinogenicity studies
[1] = Species/Cell Type: Human lymphocytes or leukocytes, Assay Type: Chromosome aberrations in vitro, Assay Code: CY7+, Evaluation Type: Evaluation A (Pre-1980)
[2] = Species/Cell Type: Nonhuman, Assay Code: CCG+, Evaluation Type: Evaluation A (Pre-1980)
[3] = Species/Cell Type: Salmonella typhimurium (one or more of the five standard strains: TA98, TA100, TA1535, TA1537, and TA1538), Assay Type: Histidine reverse gene mutation, Ames assay, Assay Code: SAL+, Evaluation Type: Evaluation A (Pre-1980)
[4] = Species/Cell Type: Vicia faba, Assay Type: Chromosome aberrations, Assay Code: VIC+D, Dose Response: With dose response, Evaluation Type: Evaluation A (Pre-1980)
[5] = Species/Cell Type: Drosophila melanogaster, Assay Type: Sex-linked recessive lethal gene mutation, Assay Code: SRL+, Evaluation Type: Evaluation A (Pre-1980)
[6] = Species/Cell Type: Vicia faba, Assay Type: Chromosome aberrations, Assay Code: VIC+, Evaluation Type: Evaluation A (Pre-1980)
[7] = Species/Cell Type: Salmonella typhimurium (one or more of the five standard strains: TA98, TA100, TA1535, TA1537, and TA1538), Assay Type: Histidine reverse gene mutation, Ames assay, Assay Code: SAL-, Evaluation Type: Evaluation A (Pre-1980)
[8] = Species/Cell Type: Mouse, Sex: Male, Assay Type: Sperm morphology, Assay Code: SPI-, Evaluation Type: Evaluation A (Pre-1980)
[9] = Species/Cell Type: Escherichia coli polA (W3119 vs P3478), Assay Type: Rec-assay, DNA effects (bacterial DNA repair), Assay Code: RE1T, Evaluation Type: Evaluation A (Pre-1980)

COc1cccc2c1C(=O)c1c(O)c3c(c(O)c1C2=O)C[C@@](O)(C(C)=O)C[C@@H]3O[C@H]1C[C@H](N)[C@H](O)[C@H](C)O1
mutagenic call (Species/Cell Type: Chinese hamster lung (V79) cells, Assay Type: Forward gene mutation at the HPRT or ouabain locus, Assay Code: V79+, Evaluation Type: Evaluation A (Pre-1980)): active; positive
mutagenic call (Species/Cell Type: Chinese hamster ovary (CHO) cells, Assay Type: Forward gene mutation at the HPRT locus, Assay Code: CHO+, Evaluation Type: Evaluation B (Post-1980)): active; positive
mutagenic call (Species/Cell Type: Glycine max (soybean), Assay Type: Gene mutation, Assay Code: GLMT, Evaluation Type: Evaluation A (Pre-1980)): no conclusion
mutagenic call (Species/Cell Type: Human cell culture, Assay Type: Chromosome aberrations in vitro, Assay Code: CYZ+D, Dose Response: With dose response, Evaluation Type: Evaluation A (Pre-1980)): active; positive
mutagenic call [1]: active; positive
mutagenic call (Species/Cell Type: Human lymphocytes, Assay Type: Sister-chromatid exchange (SCE) in vitro, Assay Code: SCL+D, Dose Response: With dose response, Evaluation Type: Evaluation B (Post-1980)): active; positive
mutagenic call (Species/Cell Type: Human, Assay Type: Sister-chromatid exchange (SCE) in vitro, Assay Code: SC1+D, Dose Response: With dose response, Evaluation Type: Evaluation B (Post-1980)): active; positive
mutagenic call (Species/Cell Type: Nonhuman bone marrow, Assay Type: Chromosome aberrations, in vivo, Assay Code: CY#+, Evaluation Type: Evaluation A (Pre-1980)): active; positive
mutagenic call (Species/Cell Type: Nonhuman lymphocytes or leukocytes, Assay Type: Chromosome aberrations in vivo, Assay Code: CY%+, Evaluation Type: Evaluation A (Pre-1980)): active; positive
call [2]: active; positive
mutagenic call (Species/Cell Type: Nonhuman, Assay Type: Sister-chromatid exchange (SCE) in vitro, Assay Code: SC2+, Evaluation Type: Evaluation B (Post-1980)): active; positive
mutagenic call (Species/Cell Type: Nonhuman, Assay Type: Sister-chromatid exchange (SCE) in vivo, Assay Code: SC3+D, Dose Response: With dose response, Evaluation Type: Evaluation B (Post-1980)): active; positive
mutagenic call [3]: active; positive
mutagenic call [4]: active; positive

c1ccc2c(c1)ccc1cc3c(ccc4ccccc43)cc12
mutagenic call (Species/Cell Type: Chinese hamster lung (V79) cells, Assay Type: Forward gene mutation at the HPRT or ouabain locus, Assay Code: V79+*, Activation: With metabolic activation, Evaluation Type: Evaluation A (Pre-1980)): active; positive
mutagenic call [5]: active; positive
mutagenic call (Species/Cell Type: Fischer rat embryo (RLV/1706) cells, Assay Type: Cell transformation, viral enhanced, Assay Code: CTR+, Evaluation Type: Evaluation A (Pre-1980)): active; positive
mutagenic call (Species/Cell Type: Fischer rat embryo (SA7/RE) cells, Assay Type: Cell transformation, viral enhanced, Assay Code: CTA+, Evaluation Type: Evaluation A (Pre-1980)): active; positive
mutagenic call (Species/Cell Type: Human diploid fibroblasts, Assay Type: Unscheduled DNA synthesis (UDS) in vitro, DNA effects, Assay Code: UDHT, Evaluation Type: Evaluation A (Pre-1980)): no conclusion
mutagenic call (Species/Cell Type: Mouse (BALB/c-3T3) cells, Assay Type: Cell transformation, Assay Code: CTB+, Evaluation Type: Evaluation A (Pre-1980)): active; positive
mutagenic call (Species/Cell Type: Mouse (C3H/10T1/2) cells, Assay Type: Cell transformation, Assay Code: CTH+, Evaluation Type: Evaluation A (Pre-1980)): active; positive
mutagenic call (Species/Cell Type: Mouse embryo (AKR/ME) cells, Assay Type: Cell transformation, Assay Code: CTK+, Evaluation Type: Evaluation A (Pre-1980)): active; positive
mutagenic call (Species/Cell Type: Mouse prostate cells, Assay Type: Cell transformation, Assay Code: CTMT, Evaluation Type: Evaluation A (Pre-1980)): no conclusion
mutagenic call (Species/Cell Type: Neurospora crassa, Assay Type: Forward gene mutation, Assay Code: NEF+, Evaluation Type: Evaluation A (Pre-1980)): active; positive
call [2]: active; positive
mutagenic call (Species/Cell Type: Nonhuman, Assay Type: Sister-chromatid exchange (SCE) in vivo, Assay Code: SC3T, Evaluation Type: Evaluation A (Pre-1980)): no conclusion
mutagenic call (Species/Cell Type: Salmonella typhimurium (one or more of the five standard strains: TA98, TA100, TA1535, TA1537, and TA1538), Assay Type: Histidine reverse gene mutation, Ames assay, Assay Code: SAL+*, Activation: With metabolic activation, Evaluation Type: Evaluation A (Pre-1980)): active; positive
mutagenic call (Species/Cell Type: Syrian hamster embryo (SA7/SHE) cells, Assay Type: Cell transformation, viral enhanced, Assay Code: CT7+, Evaluation Type: Evaluation A (Pre-1980)): active; positive
mutagenic call (Species/Cell Type: Syrian hamster embryo (SHE) cells, Assay Type: Cell transformation, clonal assay, Assay Code: CTC+D, Dose Response: With dose response, Evaluation Type: Evaluation A (Pre-1980)): active; positive
mutagenic call (Species/Cell Type: Syrian hamster embryo (SHE) cells, Assay Type: Cell transformation, focus assay, Assay Code: CTF+, Evaluation Type: Evaluation A (Pre-1980)): active; positive

CC(=O)N1CC1
mutagenic call [6]: active; positive

Cc1cc(Cl)cc2c1C(=O)/C(=C1\Sc3cc(Cl)cc(C)c3C1=O)S2
mutagenic call [7]: inactive; negative

COc1cc(S(=O)(=O)O)c(C)cc1N=Nc1c(O)ccc2cc(S(=O)(=O)O)ccc12
mutagenic call (Species/Cell Type: Drosophila melanogaster, Assay Type: Sex-linked recessive lethal gene mutation, Assay Code: SRL-, Evaluation Type: Evaluation A (Pre-1980)): inactive; negative
mutagenic call [7]: inactive; negative

COc1nn(CSP(=S)(OC)OC)c(=O)s1
mutagenic call (Species/Cell Type: Nonhuman, Assay Type: Sister-chromatid exchange (SCE) in vitro, Assay Code: SC2+D*, Activation: With metabolic activation, Dose Response: With dose response, Evaluation Type: Evaluation B (Post-1980)): active; positive

Nc1c(Cl)cc([N+](=O)[O-])cc1Cl
mutagenic call (Species/Cell Type: Aspergillus nidulans, Assay Type: Aneuploidy, chromosome aberrations, Assay Code: ASNT, Evaluation Type: Evaluation A (Pre-1980)): no conclusion
mutagenic call (Species/Cell Type: Bacillus subtilis (H17 vs M45), Assay Type: Rec-assay, spot test, DNA effects (bacterial DNA repair), Assay Code: REWT, Evaluation Type: Evaluation A (Pre-1980)): no conclusion
mutagenic call (Species/Cell Type: Hordeum vulgare (barley), Assay Type: Chromosome aberrations, Assay Code: HOC+, Evaluation Type: Evaluation A (Pre-1980)): active; positive
mutagenic call [6]: active; positive

FC(F)(F)C(Cl)Br (centres undefined)
mutagenic call (Species/Cell Type: Chinese hamster lung (V79) cells, Assay Type: Forward gene mutation at the HPRT or ouabain locus, Assay Code: V79-, Evaluation Type: Evaluation A (Pre-1980)): inactive; negative
mutagenic call [5]: active; positive
mutagenic call (Species/Cell Type: Human lymphocytes, Assay Type: Sister-chromatid exchange (SCE) in vivo, Assay Code: SCY+, Evaluation Type: Evaluation B (Post-1980)): active; positive
mutagenic call [8]: inactive; negative
call (Species/Cell Type: Nonhuman, Assay Code: CCG-L, Evaluation Type: Evaluation A (Pre-1980)): inactive; negative
mutagenic call (Species/Cell Type: Nonhuman, Assay Type: Sister-chromatid exchange (SCE) in vitro, Assay Code: SC2T, Evaluation Type: Evaluation B (Post-1980)): no conclusion
mutagenic call (Species/Cell Type: Nonhuman, Assay Type: Sister-chromatid exchange (SCE) in vivo, Assay Code: SC3T, Evaluation Type: Evaluation B (Post-1980)): no conclusion
mutagenic call (Species/Cell Type: Saccharomyces cerevisiae, Assay Type: Mitotic recombination or gene conversion, Assay Code: YEC+, Evaluation Type: Evaluation A (Pre-1980)): active; positive
mutagenic call (Species/Cell Type: Saccharomyces cerevisiae, Assay Type: Mitotic recombination or gene conversion, Assay Code: YEH+, Evaluation Type: Evaluation A (Pre-1980)): active; positive
mutagenic call (Species/Cell Type: Saccharomyces cerevisiae, Assay Type: Reverse gene mutation, Assay Code: YER+, Evaluation Type: Evaluation A (Pre-1980)): active; positive
mutagenic call [4]: active; positive

NCCCN1CC1
mutagenic call (Species/Cell Type: Schizosaccharomyces pombe, Assay Type: Reverse gene mutation, Assay Code: YEZ+, Evaluation Type: Evaluation A (Pre-1980)): active; positive

Oc1ccccc1
mutagenic call (Species/Cell Type: Human lymphocytes, Assay Type: Sister-chromatid exchange (SCE) in vitro, Assay Code: SCL+, Evaluation Type: Evaluation B (Post-1980)): active; positive
mutagenic call (Species/Cell Type: Human, Assay Type: Sister-chromatid exchange (SCE) in vitro, Assay Code: SC1+, Evaluation Type: Evaluation B (Post-1980)): active; positive
mutagenic call (Species/Cell Type: Mammalian polychromatic erythrocytes, Assay Type: Micronucleus test, chromosome aberrations, Assay Code: MNTT, Evaluation Type: Evaluation B (Post-1980)): no conclusion
mutagenic call (Species/Cell Type: Neurospora crassa, Assay Type: Reverse gene mutation, Assay Code: NER-, Evaluation Type: Evaluation A (Pre-1980)): inactive; negative

NC(N)=O
mutagenic call (Species/Cell Type: Allium cepa, Assay Type: Chromosome aberrations, Assay Code: ALC+D, Dose Response: With dose response, Evaluation Type: Evaluation A (Pre-1980)): active; positive
mutagenic call [9]: no conclusion
mutagenic call (Species/Cell Type: Glycine max (soybean), Assay Type: Gene mutation, Assay Code: GLM-, Evaluation Type: Evaluation A (Pre-1980)): inactive; negative
mutagenic call [1]: active; positive
mutagenic call [8]: inactive; negative
mutagenic call (Species/Cell Type: Plant, Assay Type: Micronucleus test, chromosome aberrations, Assay Code: MNP+, Evaluation Type: Evaluation A (Pre-1980)): active; positive

CCCCC/C=C/C=C/C(=O)NCC(C)C
mutagenic call (Species/Cell Type: Allium cepa, Assay Type: Chromosome aberrations, Assay Code: ALC+, Evaluation Type: Evaluation A (Pre-1980)): active; positive

C[C@H]1O[C@@H](O[C@H]2[C@@H](O)C[C@H](O[C@H]3[C@@H](O)C[C@H](O[C@H]4CC[C@@]5(C)[C@H](CC[C@@H]6[C@@H]5C[C@@H](O)[C@]5(C)[C@@H](C7=CC(=O)OC7)CC[C@]65O)C4)O[C@@H]3C)O[C@@H]2C)C[C@H](O)[C@@H]1O
mutagenic call [9]: no conclusion

O=C1c2ccccc2C(=O)c2c(O)c(S(=O)(=O)O)cc(O)c21
mutagenic call [3]: active; positive
